According to US6337330B1, “Antitussives” (priority 1997, dated 2002):

Legend:
[1] = test system: Rat Model of Capsaicin-induced Cough; assay: Antitussive action using rat model of capsaicin-induced cough; assay type: in vivo, SD male rats; conditions: 30 minutes after administration, capsaicin 60 μM, versus distilled water group
Excerpt: Evaluation of Antitussive Action Using Rat Model of Capsaicin-induced Cough
Rat groups each consisting of 5 SD male rats (Charles River Japan) of 7 weeks old were used. The rats not anesthetized were placed in a container comprising two acrylic cylinders including a head and a body. A rubber collar and plastic collar were put on each of the rats, and the head and body of the container were independently provided.
Capsaicin used as a medicine for inducing coughs was aerosolized by an ultrasonic nebulizer, and inhaled by the rats from the front side of the container by using an artificial respiration apparatus. The concentration of capsaicin was 60 μM. In this inhalation, the flow rate of air was 10 ml×70 times/min (700 ml/min). Changes in internal pressure of the closed body box were recorded on a recorder through a differential transducer. Coughs were measured by the changes in internal the body box and visually observing the motions of the rats.
A medicine was diluted with distilled water, and 1 to 10 mg/5 ml/kg was subcutaneously administered.
Each of the rats was fixed by a holder, and 60 minutes after, capsaicin was inhaled for 3 minutes to count the number of coughs. The rats having at least 9 coughs were subjected to examination of a medicine. The rats were administered subcutaneously with a medicine, and fixed by a holder, and 30 minutes after, capsaicin was inhaled for 3 minutes to count the number of coughs. The antitussive action of each of compounds was represented by the inhibition rate shown by the number of coughs of the group in which a medicine was administered based on the number of coughs of the group in which distilled water was administered.

[2] = test system: Mouse Model of Capsaicin-induced Cough; assay: Antitussive action using mouse model of capsaicin-induced cough; assay type: in vivo
Procedure: Evaluation of Antitussive Action Using Mouse Model of Capsaicin-induced Cough
Capsaicin (30 μM) was sent as aerosol to a cap attached to the head of a mouse by using an ultrasonic nebulizer and an artificial respiratory apparatus through a silicon tube, and inhaled by the mouse to induce coughs. For inhalation of capsaicin, capsaicin was sent by using the artificial respiratory apparatus at a rate of 60 times per minute in a dose of 5 ml at a time.
15 minutes before administration of a medicine, capsaicin was inhaled for 3 minutes, and it was confirmed that coughs were induced during this time. 15 minutes, 60 minutes and 120 minutes after administration of a medicine, capsaicin was inhaled for 3 minutes to measure the number of coughs induced during this time. The antitussive effect was evaluated by determining the inhibition rate shown by the number of coughs after administration of a medicine based on the number of coughs before administration of a medicine. Capsaicin was dissolved in 10% ethanol and a 10% Tween 80 solution, and diluted with physiological saline. The medicine was dissolved in physiological saline, and intraperitoneally administered.

COc1cccc([C@@]23CCN(C)C[C@@H]2Cc2cc4ccccc4nc2C3)c1
melting point: 154 to 155.5 °C

CN1CC[C@@]2(c3cccc(O)c3)Cc3nc4ccccc4cc3CC2C1 (stereo in doubt) [Compound 2, (4aR, 12aR)-2-methyl-4a-(3-hydroxyphenyl)-1,2,3,4,4a,5,12,12a-octahydro-quinolino[2,3-g]isoquinoline]
Inhibition rate (%) of number of coughs ([1]; 1 mg/kg subcutaneous): 72.5% | time of peak antitussive effect after administration ([2]; 10 μg/kg intraperitoneal): 15 min | antitussive effect 120 minutes after administration ([2]; 10 μg/kg intraperitoneal, 120 minutes after administration): recovered to the same level as a group in which physiological saline was administered | effect of suppressing coughs (inhibition rate of number of coughs) ([2]; 10 μg/kg intraperitoneal, versus physiological saline group, p<0.05 (U test)): significant effect of suppressing coughs | ED50 ([2]; ip, intraperitoneal, fifteen minutes after administration, capsaicin 30 μM inhalation, calculated from FIG. 2, read-out: ED50 value of the antitussive effect): 4.2 µg/kg

Oc1cccc([C@@]23CCNCC2Cc2cc4ccccc4nc2C3)c1 (stereo in doubt) [Compound 4, (4aR, 12aR)-4a-(3-hydroxyphenyl)-1,2,3,4,4a,5,12,12a-octahydroquinolino[2,3-g]isoquinoline]
Inhibition rate (%) of number of coughs ([1]; 10 mg/kg subcutaneous): 34.0%

Oc1cccc([C@@]23CCN(CC4CC4)CC2Cc2cc4ccccc4nc2C3)c1 (stereo in doubt) [Compound 6, (4aR, 12aR)-2-cyclopropylmethyl-4a-(3-hydroxyphenyl)-1,2,3,4,4a,5,12,12a-octahydroquinolino[2,3-g]isoquinoline]
Inhibition rate (%) of number of coughs ([1]; 1 mg/kg subcutaneous): 30.9%

Oc1cccc([C@@]23CCN(CCc4ccccc4)C[C@H]2Cc2cc4ccccc4nc2C3)c1 [Compound 7, (4aR, 12aR)-2-(2-phenethyl)-4a-(3-hydroxyphenyl)-1,2,3,4,4a,5,12,12a-octahydroquinolino[2,3-g]isoquinoline]
Inhibition rate (%) of number of coughs ([1]; 1 mg/kg subcutaneous): 44.3%
